Active and inactive are the calls of the source. The rule behind the calls is not given here.
Legend:
[1] = Dissociation constant, pKa of the compound in aqueous solution by spectrophotometry; format: physicochemical
[2] = Binding affinity to adenosine monophosphate in phosphate buffer by ARS competition assay at pH 7.4
[3] = Dissociation constant, pKa of the compound in aqueous solution by [11]B-NMR analysis; format: physicochemical

pKa [1] | Activity [2] | pKa [3] | Structure (SMILES)
8.32 |  |  | CC1(C)OB(O)c2ccccc21
 | Active |  | OB1OCc2cc(C(F)(F)F)ccc21
8.4 |  | 8.4 | OB1OCCc2ccccc21 [BENZOXABORIN]
7.34 | Active | 7.2 | OB1OCc2ccccc21 [BENZOXABOROLE]
